Source: patent US10961202B2, “Bis-benzimidazole compounds and methods of using the same” (THE SCRIPPS RESEARCH INSTITUTE, priority 2017, dated 2021)
pIC50: −log10 of the molar value.

These compounds were tested on r(CUG)12-MBNL1 complex (assay: Inhibition of the r(CUG)12-MBNL1 complex measured by TR-FRET). Settings: Table L; 80 nM RNA, 60 nM MBNL1-His6.
Type: biochemical

**Q.** How did the pIC50 turn out when `CNCCNC(=O)c1ccc2nc(-c3ccc(-c4nc5ccc(C(=O)NCCNC)cc5[nH]4)cc3)[nH]c2c1` [Compound 28, 2,2′-(1,4-phenylene)bis(N-(2-(methylamino)ethyl)-1H-benzo[d]imidazole-6-carboxamide)] was run?
**A.** 4.91

**Q.** How did the pIC50 turn out when `CN(C)CCNC(=O)c1ccc2nc(-c3ccc(-c4nc5ccc(C(=O)NCCN)cc5[nH]4)cc3)[nH]c2c1` [Compound 29, N-(2-aminoethyl)-2-(4-(6-((2-(dimethylamino)ethyl)carbamoyl)-1H-benzo[d]imidazol-2-yl)phenyl)-1H-benzo[d]imidazole-6-carboxamide] was run?
**A.** 5.02

**Q.** How did the pIC50 turn out when `NCCNC(=O)c1ccc2nc(-c3ccc(-c4nc5ccc(C(=O)NCCN)cc5[nH]4)cc3)[nH]c2c1` [Compound 30, 2,2′-(1,4-phenylene)bis(N-(2-aminoethyl)-1H-benzo[d]imidazole-6-carboxamide)] was run?
**A.** 4.74

**Q.** With `C[N+](C)(C)CCNC(=O)c1ccc2nc(-c3ccc(-c4nc5ccc(C(=O)NCC[N+](C)(C)C)cc5[nH]4)cc3)[nH]c2c1` [Compound 31, 2,2′-((2,2′-(1,4-phenylene)bis(1H-benzo[d]imidazole-6,6′-carbonyl))bis(azanediyl))bis(N,N,N-trimethylethanaminium) chloride] as the compound, how does the pIC50 read?
**A.** 4.81

**Q.** With `CN(C)CCCNC(=O)c1ccc2nc(-c3ccc(-c4nc5ccc(C(=O)NCCN(C)C)cc5[nH]4)cc3)[nH]c2c1` [Compound 35, N-(2-(dimethylamino)ethyl)-2-(4-(6-((3-(dimethylamino)propyl)carbamoyl)-1H-benzo[d]imidazol-2-yl)phenyl)-1H-benzo[d]imidazole-6-carboxamide] as the compound, how does the pIC50 read?
**A.** 5.21

**Q.** How did the pIC50 turn out when `CN(C)CCCNC(=O)c1ccc2nc(-c3ccc(-c4nc5ccc(C(=O)NCCCN(C)C)cc5[nH]4)cc3)[nH]c2c1` [Compound 36, 2,2′-(1,4-phenylene)bis(N-(3-(dimethylamino)propyl)-1H-benzo[d]imidazole-6-carboxamide)] was run?
**A.** 5.11

**Q.** With `CN(C)CCNC(=O)c1ccc2nc(-c3ccc(-c4nc5ccc(C(=O)NCCN(C)CCN)cc5[nH]4)cc3)[nH]c2c1` [Compound 37, N-(2-((2-aminoethyl)(methyl)amino)ethyl)-2-(4-(6-((2-(dimethylamino)ethyl)carbamoyl)-1H-benzo[d]imidazol-2-yl)phenyl)-1H-benzo[d]imidazole-6-carboxamide] as the compound, how does the pIC50 read?
**A.** 5.11

**Q.** How did the pIC50 turn out when `COC(=O)[C@H](CCCNC(=N)N)NC(=O)c1ccc2nc(-c3ccc(-c4nc5ccc(C(=O)N[C@@H](CCCNC(=N)N)C(=O)OC)cc5[nH]4)cc3)[nH]c2c1` [Compound 39] was run?
**A.** 5.36

**Q.** With `O=C(NCCN1CCCC1)c1ccc2nc(-c3ccc(-c4nc5ccc(C(=O)NCCN6CCCC6)cc5[nH]4)cc3)[nH]c2c1` [Compound 40, 2,2′-(1,4-phenylene)bis(N-(2-(pyrrolidin-1-yl)ethyl)-1H-benzo[d]imidazole-6-carboxamide)] as the compound, how does the pIC50 read?
**A.** 5.15

**Q.** `O=C(NCCN1CCOCC1)c1ccc2nc(-c3ccc(-c4nc5ccc(C(=O)NCCN6CCOCC6)cc5[nH]4)cc3)[nH]c2c1` [Compound 42, 2,2′-(1,4-phenylene)bis(N-(2-morpholinoethyl)-1H-benzo[d]imidazole-6-carboxamide)] was tested. Which pIC50 did it give?
**A.** < 3.70

**Q.** How did the pIC50 turn out when `O=C(O)c1ccc2nc(-c3ccc(-c4nc5ccc(C(=O)NCCN6CCCCC6)cc5[nH]4)cc3)[nH]c2c1` [Compound 43, 2-(4-(6-((2-(piperidin-1-yl)ethyl)carbamoyl)-1H-benzo[d]imidazol-2-yl)phenyl)-1H-benzo[d]imidazole-6-carboxylic Acid] was run?
**A.** < 3.70

**Q.** With `CN1CCN(CCNC(=O)c2ccc3nc(-c4ccc(-c5nc6ccc(C(=O)NCCN7CCN(C)CC7)cc6[nH]5)cc4)[nH]c3c2)CC1` [Compound 45, 2,2′-(1,4-phenylene)bis(N-(2-(4-methylpiperazin-1-yl)ethyl)-1H-benzo[d]imidazole-6-carboxamide)] as the compound, how does the pIC50 read?
**A.** 4.74

**Q.** How did the pIC50 turn out when `CC(C)(C)OC(=O)N1CCN(CCNC(=O)c2ccc3nc(-c4ccc(-c5nc6ccc(C(=O)NCCN7CCN(C(=O)OC(C)(C)C)CC7)cc6[nH]5)cc4)[nH]c3c2)CC1` [Compound 46, di-tert-butyl 4,4′-(((2,2′-(1,4-phenylene)bis(1H-benzo[d]imidazole-6,6′-carbonyl))bis(azanediyl))bis(ethane-2,1-diyl))bis(piperazine-1-carboxylate)] was run?
**A.** < 3.70

**Q.** With `O=C(NCCCN1CCCCC1)c1ccc2nc(-c3ccc(-c4nc5ccc(C(=O)NCCCN6CCCCC6)cc5[nH]4)cc3)[nH]c2c1` [Compound 48, 2,2′-(1,4-phenylene)bis(N-(3-(piperidin-1-yl)propyl)-1H-benzo[d]imidazole-6-carboxamide)] as the compound, how does the pIC50 read?
**A.** 4.99

**Q.** With `CN(C)CCNC(=O)c1ccc2nc(-c3ccc(-c4nc5ccc(C(=O)NCCNC(=O)OC(C)(C)C)cc5[nH]4)cc3)[nH]c2c1` [Compound 49, tert-butyl (2-(2-(4-(6-((2-(dimethylamino)ethyl)carbamoyl)-1H-benzo[d]imidazol-2-yl)phenyl)-1H-benzo[d]imidazole-6-carboxamido)ethyl)carbamate] as the compound, how does the pIC50 read?
**A.** 4.66

**Q.** How did the pIC50 turn out when `CC(C)(C)OC(=O)NCCNC(=O)c1ccc2nc(-c3ccc(-c4nc5ccc(C(=O)NCCNC(=O)OC(C)(C)C)cc5[nH]4)cc3)[nH]c2c1` [Compound 50, di-tert-butyl(((2,2′-(1,4-phenylene)bis(1H-benzo[d]imidazole-6,6′-carbonyl))bis(azanediyl))bis(ethane-2,1-diyl))dicarbamate] was run?
**A.** < 3.70

**Q.** How did the pIC50 turn out when `CC(=O)NCCNC(=O)c1ccc2nc(-c3ccc(-c4nc5ccc(C(=O)NCCNC(C)=O)cc5[nH]4)cc3)[nH]c2c1` [Compound 51, 2,2′-(1,4-phenylene)bis(N-(2-acetamidoethyl)-1H-benzo[d]imidazole-6-carboxamide)] was run?
**A.** < 3.70

**Q.** `CCCNC(=O)c1ccc2nc(-c3ccc(-c4nc5ccc(C(=O)NCCC)cc5[nH]4)cc3)[nH]c2c1` [Compound 52, 2,2′-(1,4-phenylene)bis(N-propyl-1H-benzo[d]imidazole-6-carboxamide)] was tested. Which pIC50 did it give?
**A.** < 3.70

**Q.** With `COCCNC(=O)c1ccc2nc(-c3ccc(-c4nc5ccc(C(=O)NCCOC)cc5[nH]4)cc3)[nH]c2c1` [Compound 53, 2,2′-(1,4-phenylene)bis(N-(2-methoxyethyl)-1H-benzo[d]imidazole-6-carboxamide)] as the compound, how does the pIC50 read?
**A.** < 3.70

**Q.** `CN(C)CCOC(=O)c1ccc2nc(-c3ccc(-c4nc5ccc(C(=O)OCCN(C)C)cc5[nH]4)cc3)[nH]c2c1` [Compound 54, bis(2-(dimethylamino)ethyl) 2,2′-(1,4-phenylene)bis(1H-benzo[d]imidazole-6-carboxylate)] was tested. Which pIC50 did it give?
**A.** 5.44

**Q.** How did the pIC50 turn out when `CN(C)CCCOC(=O)c1ccc2nc(-c3ccc(-c4nc5ccc(C(=O)OCCCN(C)C)cc5[nH]4)cc3)[nH]c2c1` [Compound 56] was run?
**A.** 5.30

**Q.** `CN(C)CCOc1ccc2nc(-c3ccc(-c4nc5ccc(OCCN(C)C)cc5[nH]4)cc3)[nH]c2c1` [Compound 57, 2,2′-((2,2′-(1,4-phenylene)bis(1H-benzo[d]imidazole-6,2-diyl))bis(oxy))bis(N,N-dimethylethanamine)] was tested. Which pIC50 did it give?
**A.** 3.92

**Q.** How did the pIC50 turn out when `CN(C)CCNCc1ccc2nc(-c3ccc(-c4nc5ccc(CNCCN(C)C)cc5[nH]4)cc3)[nH]c2c1` [Compound 61] was run?
**A.** < 3.70

**Q.** `CON(C)Cc1ccc2nc(-c3ccc(-c4nc5ccc(CNCCN(C)C)cc5[nH]4)cc3)[nH]c2c1` [Compound 62] was tested. Which pIC50 did it give?
**A.** < 3.70

**Q.** With `CN(C)CC(=O)Nc1ccc2nc(-c3ccc(-c4nc5ccc(NC(=O)CN(C)C)cc5[nH]4)cc3)[nH]c2c1` [Compound 63] as the compound, how does the pIC50 read?
**A.** 4.97

**Q.** With `CN(C)CCNC(=O)Nc1ccc2nc(-c3ccc(-c4nc5ccc(NC(=O)NCCN(C)C)cc5[nH]4)cc3)[nH]c2c1` [Compound 64] as the compound, how does the pIC50 read?
**A.** 4.57
